The text below walks through data of BindingDB's records for doi:10.1016/s0960-894x(01)00475-9 (Glaxosmithkline, 2001).

Peptide text beside a SMILES is read from it.

This experiment in a line: Inhibitory activity against Bacterial Tyrosyl tRNA Synthetase.
In turn, `CCOC(=O)[C@H](NC(=O)[C@@H](N)Cc1ccc(O)cc1)[C@@H]1CC[C@H](O)[C@H](O)[C@H]1O` [(R)-[(S)-2-Amino-3-(4-hydroxy-phenyl)-propionylamino]-((1S,2S,3S,4S)-2,3,4-trihydroxy-cyclohexyl)-acetic acid ethyl ester] showed an IC50 of over 3000 nM.
The compound `COC(=O)[C@@H](NC(=O)[C@@H](N)Cc1ccc(O)cc1)C1CCCCC1` [(S)-[(S)-2-Amino-3-(4-hydroxy-phenyl)-propionylamino]-cyclohexyl-acetic acid methyl ester] (HELM PEPTIDE1{Y.[O=C([C@@H](N[*:1])C1CCCCC1)[*:2]].[CO[*:1]]}$$$$V2.0) displayed an IC50 of over 3000 nM.
`CCOC(=O)[C@@H](NC(=O)[C@@H](N)Cc1ccc(O)cc1)[C@@H]1C=C[C@H](O)[C@H](O)[C@H]1O` [(S)-[(S)-2-Amino-3-(4-hydroxy-phenyl)-propionylamino]-((1S,4S,5S,6S)-4,5,6-trihydroxy-cyclohex-2-enyl)-acetic acid ethyl ester] had an IC50 of 3.4 nM.
`CCOC(=O)[C@H](NC(=O)[C@@H](N)Cc1ccc(O)cc1)[C@@H]1C=C[C@H](O)[C@H](O)[C@H]1O` [(R)-[(S)-2-Amino-3-(4-hydroxy-phenyl)-propionylamino]-((1S,4S,5S,6S)-4,5,6-trihydroxy-cyclohex-2-enyl)-acetic acid ethyl ester] returned an IC50 of 124 nM.
As for `CCOC(=O)[C@@H](NC(=O)[C@@H](N)Cc1ccc(O)cc1)[C@@H]1CC[C@H](O)[C@H](O)[C@H]1O` [(S)-[(S)-2-Amino-3-(4-hydroxy-phenyl)-propionylamino]-((1S,2S,3S,4S)-2,3,4-trihydroxy-cyclohexyl)-acetic acid ethyl ester], the figure is 245 nM.
